From US6403606B1, “Thienopyridine derivatives and their use” (Takeda Chemical Industries Ltd., priority 1996, dated 2002)
Marks after values point to notes of the source that are not given here.

Assays:
[1] = test system: fetal rat bone culture (humeri, radii and ulnae); assay: Bone resorption inhibitory activity, 45Ca release from fetal rat bone culture (Test Example 2A); assay type: cell-based, Sprague-Dawlay rat; conditions: 10 μM compound, 2 days culture; 45Ca release as % of control without compound (lower = more inhibition)
Experimental: (§1) The measurement of bone resorption inhibitory activity was carried out according to the method of Raisz [J. Clin. Invest., 44, 103-116 (1965)]. Namely, 50 μCi of ^45Ca (radioisotope of calcium in CaCl2 solution) was subcutaneously injected into a Sprague-Dawlay rat of 18th day of pregnancy. On the next day, the abdomen was opened and a fetal rat was taken out sterilely. The left and right humeri (radii and ulnae) were removed from the body under a dissection microscope and connective tissues and cartilages were removed as much as possible. Thus, bone culture samples were prepared. The bone was incubated in a medium (0.6 ml) of BCJb medium (Fitton-Jackson modification: GIBCO Laboratories, U.S.A.) containing 2 mg/ml of bovine serum albumin at 37° C. for 24 hours in an atmosphere of 5% of CO2 in air. The bones were cultured for an additional 2 days in the above medium containing a final concentration of 10 μM of the compound. The ratio (%) of ^45Ca released from the bone into the medium was calculated according to the following equation. [formula]
(§2) The bones from the same litter were cultured for 2 days the same manner without addition of the compound, and used as the control. The mean±standard deviation of the values for five bones of each group was calculated. The ratio (%) of this value to the control value was calculated. The results are shown in Table 2 (In the tables hereinafter, Ex. No. indicates Example No.).

[2] = test system: Rat Adjuvant Arthritis; assay: Activity on rat adjuvant arthritis (Test Example 1B); assay type: in vivo, Male Lewis rats; conditions: N=6; for Body weight gain rate (%): day 14; for Edema inhibitory rate (%): left hind paw volume day 14
Experimental: Male Lewis rats (7 weeks old, Clea Japan) were sensitized by intracutaneous injection of 0.05 ml of Freund's complete adjuvant (0.5% dead tubercle bacillus cell suspension in liquid paraffin) at the right hind paw. The test drug (6.25 mg/kg or 3.13 mg/kg), in a suspension in 0.5% methyl cellulose, was administered once daily for 14 days starting just before sensitization (day 0). At the days 0 and 14, the left hind paw volume and body weight of the animals were measured using a plethysmometer (manufactured by Ugo Basile Company, Italy) and an electronic balance (EB-3200D, manufactured by Shimadzu Corporation, Japan), respectively, and paw swelling suppression rate (%) and body weight gain rate (%), relative to non-sensitized rats, were determined.
The results, expressed in mean±S.E. for each group (N=6), were compared and statistically analyzed by Dunnet method. Level of significance was set below 5%.

[3] = test system: fetal rat bone culture (humeri, radii and ulnae); assay: Bone resorption inhibitory activity, 45Ca release from fetal rat bone culture (Test Example 2B); assay type: cell-based, Sprague-Dawlay rat; conditions: 10 μM compound, 2 days culture; 45Ca release as % of control without compound (lower = more inhibition)
Experimental: as §1
as §2, with “Table 4” for “Table 2”

[4] = 3.13 mg/kg once daily for 14 days
[5] = 6.25 mg/kg once daily for 14 days

Compound | Bone resorption inhibitory activity (^45Ca release) (% based on the control value) [1] | melting point [°C] | Bone resorption inhibitory inhibitory activity (^45Ca release) (% based on the control value) [3] | also measured
CCOC(=O)c1c(CN(CC)CC)nc2sc3c(c2c1-c1ccc(OC)c(OC)c1)CCNC3 [Example 5A, ethyl 2-(N,N-diethylaminomethyl)-4-(3,4-dimethoxyphenyl)-5,6,7,8-tetrahydrothieno-[2,3-b:5,4-c′]dipyridine-3-carboxylate] | 72* % based on the control value | 72 to 75 |  | 
7-benzyl-3-chloro-4-(4-hydroxy-3-methoxyphenyl)-2-(2-oxo-1-pyrrolidinylmethyl)-5,6,7,8-tetrahydrothieno[2,3-b:5,4-c′]dipyridine [Example 29B] |  |  |  | Body weight gain rate (%) [2, 4]: 12%; Edema inhibitory rate (%) [2, 4]: 69** %
CCOC(=O)c1c(CN(CC)CC)nc2sc3c(c2c1-c1ccc(OC)c(OC)c1)CCN(C(=O)c1ccc(Cl)cc1)C3 [Example 2A, ethyl 7-(4-chlorobenzoyl)-2-(N,N-diethylaminomethyl)-4-(3,4-dimethoxyphenyl)-5,6,7,8-tetrahydrothieno[2,3-b:5,4-c′]dipyridine-3-carboxylate] | 62** % based on the control value | 96 to 98 |  | 
CCOC(=O)c1c(CN(CC)CC)nc2sc3c(c2c1-c1ccc(OC)c(OC)c1)CCN(C(=O)Nc1ccccc1)C3 [Example 12A, ethyl 2-(N,N-diethylaminomethyl)-4-(3,4-dimethoxyphenyl)-7-phenylcarbamoyl-5,6,7,8-tetrahydrothieno[2,3-b:5,4-c′]dipyridine-3-carboxylate] | 77* % based on the control value | 154 to 155 |  | 
7-benzyl-3-chloro-4-(3,4-dimethoxyphenyl)-2-(2-oxo-1-piperidinylmethyl)-5,6,7,8-tetrahydrothieno[2,3-b:5,4-c′]dipyridine [Example 24B] |  |  | 44** % based on the control value | 
CCOC(=O)c1c(CCCn2cncn2)nc2sc3c(c2c1-c1ccc(OC)c(OC)c1)CCN(C(=O)c1ccc(Cl)cc1)C3 [Example 27A, ethyl 7-(4-chlorobenzoyl)-4-(3,4-dimethoxyphenyl)-5,6,7,8-tetrahydro-2-[3-(1,2,4-triazol-1-yl]propyl]thieno[2,3-b:5,4-c′]dipyridine-3-carboxylate] | 74* % based on the control value | 114 to 116 |  | 
COc1ccc(-c2c(Cl)c(CN3CCCCCC3=O)nc3sc4c(c23)CCN(Cc2ccccc2)C4)cc1OC [Example 25B, 7-benzyl-3-chloro-4-(3,4-dimethoxyphenyl)-2-(2-oxohexamethyleneiminomethyl)-5,6,7,8-tetrahydrothieno[2,3-b:5,4-c′]dipyridine] |  | 113 to 114 | 52** % based on the control value | 
7-benzyl-3-chloro-4-(3,4-dimethoxyphenyl)-2-(2-oxo-1-pyrrolidinylmethyl)-5,6,7,8-tetrahydrothieno[2,3-b:5,4-c′]dipyridine [Example 28B] |  |  | 47** % based on the control value | Body weight gain rate (%) [2, 5]: 19** %; Edema inhibitory rate (%) [2, 5]: 78** %
CCOC(=O)c1c(CN(CC)CC)nc2sc3c(c2c1-c1ccc(CC)cc1)CCNC3 [Example 33A, ethyl 4-(4-ethylphenyl)-5,6,7,8-tetrahydro-2-(N,N-diethylaminomethyl)thieno[2,3-b:5,4-c′]dipyridine-3-carboxylate] | 72** % based on the control value | 107 to 108 |  | 
CCOC(=O)c1c(CCCCn2cncn2)nc2sc3c(c2c1-c1ccc(OC)c(OC)c1)CCN(C(=O)c1ccc(Cl)cc1)C3 [Example 28A, ethyl 7-(4-chlorobenzoyl)-4-(3,4-dimethoxyphenyl)-5,6,7,8-tetrahydro-2-[4-(1,2,4-triazol-1-yl]butyl]thieno[2,3-b:5,4-c′]dipyridine-3-carboxylate] | 67*** % based on the control value | 165 to 166 |  | 
